Here are results for 6 molecules from patent US7470807B2, “Substituted arylalkanoic acid derivatives and use thereof” (Asahi Kasei Pharma Corporation, priority 2003, dated 2008).

Test [1] concerns bleomycin-induced pulmonary fibrosis. The test is described as follows: Bleomycin-induced rat pulmonary fibrosis model. Type of test: in vivo. As to conditions: for fibrosing in groups administered with known type 4 PLA2 inhibitory compounds: bleomycin model, intraperitoneally or orally administered in a similar manner; for median of the fibrosing score: bleomycin intratracheal, oral 10, 30, 100 and 300 mg/kg once or twice a day for 21 days, positive control ++ to +++. The protocol:
A suppressing effect on pulmonary fibrosing in a bleomycin-induced rat pulmonary fibrosis model, which is a pathological model of pulmonary fibrosis, was studied by the following method. Groups of BN female rats (7-week old) each consisting of seven rats were used for the test. The test animals were anesthetized with ketamine and xylazine, and the tracheae were exposed. Then, a 125 μg/0.1 ml solution of bleomycin (Nippon Kayaku) dissolved in physiological saline (Ohtsuka Pharmaceutical Factory) was injected into the tracheae by using a syringe. The negative control group was administered with 0.1 ml of saline into the tracheae.
Each test compound was suspended or dissolved in purified water containing 0.5% methylcellulose, and orally administered to the test animals at doses of 10, 30, 100 and 300 mg/5 ml/kg. The administration of the test compounds was started from the day of the bleomycin administration and performed once or twice a day for 21 days. The positive control group was administered with purified water containing 0.5% methylcellulose not added with any test compound in a similar manner. On the 21st day after the administration of bleomycin, the rats were sacrificed, and lungs were fixed with neutral buffered formalin to prepare histopathological samples. Staining of the histopathological samples was performed by the Azan method.
The histopathological samples of lungs were examined, and degree of fibrosing was represented with the following scores on the basis of formation of granulation tissues and proliferation of collagen fibers as indicators, i.e., −: no abnormality, ±: extremely mild change, +: mild change, ++: moderate change, and +++: significant change.

A further test relates to pulmonary fibrosis. As to conditions: clinical tests in the United States and Japan; cited from earlier work.

In the case of `O=C1NC(=O)C(=Cc2ccc(C(=O)NCC3CC(SC(c4ccccc4)(c4ccccc4)c4ccccc4)CN3C(=O)c3ccccc3C(=O)c3ccc(F)cc3F)cc2)S1` (stereo not drawn) [N-{1-[2-(2,4-difluorobenzoyl)benzoyl]-4-tritylsulfanylpyrrolidin-2-ylmethyl}-4-(2,4-dioxothiazolidin-5-ylidenemethyl)benzoic acid amide], in test [1], the “fibrosing in groups administered with known type 4 PLA2 inhibitory compounds” value is on record as “mild”.

In the case of “3-[4-cyclopentyloxy-3-(naphthalen-2-yl)phenyl]propionic acid [G-2]”, the “median of the fibrosing score” value in test [1] is “± to +”.

As for `Cc1ccc(=O)n(-c2ccccc2)c1` [pirfenidone], the “effect against pulmonary fibrosis in clinical tests” value in the test with pulmonary fibrosis is “effective”.

Regarding “3-[4-cyclopentyloxy-3-(1H-indole-5-yl)phenyl]propionic acid [G-4]”, in test [1], the “median of the fibrosing score” value is on record as “± to +”.

Consider `COc1cc(C(=O)O)ccc1Cc1cn(C(c2ccccc2)c2ccccc2)c2cc(Cl)ccc12` [4-(1-benzhydryl-6-chloro-1H-indol-3-ylmethyl)-3-methoxybenzoic acid, reference compound], for which, in test [1], the “fibrosing in groups administered with known type 4 PLA2 inhibitory compounds” value was “mild”.

On to `O=C(CCc1ccc(OCCS(=O)(=O)CCOC(c2ccc(Cl)cc2)c2ccc(Cl)cc2)cc1)C(F)(F)F` [4-{4-[2-(2-[bis(4-chlorophenyl)methoxy]ethylsulfonyl)ethoxy]phenyl}-1,1,1-trifluoro-2-butanone], for which the “fibrosing in groups administered with known type 4 PLA2 inhibitory compounds” value in test [1] is recorded as “mild”.
